Experimental data taken from US8940771B2, “Organic compounds” (Novartis AG, priority 2007, dated 2015).
Each block holds one compound with its values, some of them ahead of it.

How the values were obtained:
Type in all cases: biochemical
[1] = target: PI3Kα (p85iSH2(461-568)-p110α(21-1068)-His, BV1075) (Homo sapiens (Human), UniProt P42336); assay: PI3K KinaseGlo assay, PI3Kalpha; conditions: for IC50: KinaseGlo, 1 μM ATP; for Selectivity PI3Kalpha vs. PI3Kdelta: ratio of PI3Kdelta IC50 to PI3Kalpha IC50
[2] = target: PI3Kδ (p85iSH2(461-568)-p110δ(2-1044)-His, BV1060) (Homo sapiens (Human), UniProt O00329); assay: PI3K KinaseGlo assay, PI3Kdelta; conditions: 1 μM ATP, alpha vs. delta selectivity table
[3] = target: PI3Kγ (p110γ(Δ143-[Met144-1102])-His, BV950) (Homo sapiens (Human), UniProt P48736); assay: PI3K KinaseGlo assay, PI3Kgamma; conditions: 1 μM ATP, four-isoform table
[4] = alpha vs. delta selectivity table

PI3Kα (p85iSH2(461-568)-p110α(21-1068)-His, BV1075), sequence (P42336 other isoform, or with tags, fused parts or gaps): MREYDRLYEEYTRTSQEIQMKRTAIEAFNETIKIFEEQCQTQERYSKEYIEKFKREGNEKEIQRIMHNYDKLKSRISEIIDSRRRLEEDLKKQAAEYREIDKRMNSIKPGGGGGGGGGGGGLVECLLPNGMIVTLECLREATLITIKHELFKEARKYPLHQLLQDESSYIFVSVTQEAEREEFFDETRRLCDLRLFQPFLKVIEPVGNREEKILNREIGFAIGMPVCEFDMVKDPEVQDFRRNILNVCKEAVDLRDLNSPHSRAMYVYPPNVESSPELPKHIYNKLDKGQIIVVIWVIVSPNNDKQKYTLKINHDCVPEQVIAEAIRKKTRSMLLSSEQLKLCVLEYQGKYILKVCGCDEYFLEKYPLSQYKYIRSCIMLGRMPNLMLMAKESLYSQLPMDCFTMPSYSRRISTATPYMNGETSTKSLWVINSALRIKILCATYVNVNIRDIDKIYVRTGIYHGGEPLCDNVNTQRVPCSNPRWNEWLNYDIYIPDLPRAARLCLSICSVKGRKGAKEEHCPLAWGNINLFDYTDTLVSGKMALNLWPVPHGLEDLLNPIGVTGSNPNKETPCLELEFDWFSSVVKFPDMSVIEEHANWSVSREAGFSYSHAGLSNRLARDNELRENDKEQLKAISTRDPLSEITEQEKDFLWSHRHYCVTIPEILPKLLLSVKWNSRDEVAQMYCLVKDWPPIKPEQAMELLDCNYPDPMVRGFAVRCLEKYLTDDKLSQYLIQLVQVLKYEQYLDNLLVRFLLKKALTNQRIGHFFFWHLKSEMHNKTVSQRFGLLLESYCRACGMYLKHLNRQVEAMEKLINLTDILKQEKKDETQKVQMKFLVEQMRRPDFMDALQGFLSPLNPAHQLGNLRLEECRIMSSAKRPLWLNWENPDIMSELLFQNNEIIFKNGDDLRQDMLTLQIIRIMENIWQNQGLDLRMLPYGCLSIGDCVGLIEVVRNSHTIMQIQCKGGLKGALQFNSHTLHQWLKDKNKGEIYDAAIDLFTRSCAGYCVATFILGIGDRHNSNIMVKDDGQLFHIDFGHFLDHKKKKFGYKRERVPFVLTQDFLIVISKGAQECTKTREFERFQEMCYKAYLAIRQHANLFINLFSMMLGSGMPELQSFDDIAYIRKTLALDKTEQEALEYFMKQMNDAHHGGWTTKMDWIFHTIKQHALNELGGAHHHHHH
PI3Kδ (p85iSH2(461-568)-p110δ(2-1044)-His, BV1060), sequence (O00329 other isoform, or with tags, fused parts or gaps): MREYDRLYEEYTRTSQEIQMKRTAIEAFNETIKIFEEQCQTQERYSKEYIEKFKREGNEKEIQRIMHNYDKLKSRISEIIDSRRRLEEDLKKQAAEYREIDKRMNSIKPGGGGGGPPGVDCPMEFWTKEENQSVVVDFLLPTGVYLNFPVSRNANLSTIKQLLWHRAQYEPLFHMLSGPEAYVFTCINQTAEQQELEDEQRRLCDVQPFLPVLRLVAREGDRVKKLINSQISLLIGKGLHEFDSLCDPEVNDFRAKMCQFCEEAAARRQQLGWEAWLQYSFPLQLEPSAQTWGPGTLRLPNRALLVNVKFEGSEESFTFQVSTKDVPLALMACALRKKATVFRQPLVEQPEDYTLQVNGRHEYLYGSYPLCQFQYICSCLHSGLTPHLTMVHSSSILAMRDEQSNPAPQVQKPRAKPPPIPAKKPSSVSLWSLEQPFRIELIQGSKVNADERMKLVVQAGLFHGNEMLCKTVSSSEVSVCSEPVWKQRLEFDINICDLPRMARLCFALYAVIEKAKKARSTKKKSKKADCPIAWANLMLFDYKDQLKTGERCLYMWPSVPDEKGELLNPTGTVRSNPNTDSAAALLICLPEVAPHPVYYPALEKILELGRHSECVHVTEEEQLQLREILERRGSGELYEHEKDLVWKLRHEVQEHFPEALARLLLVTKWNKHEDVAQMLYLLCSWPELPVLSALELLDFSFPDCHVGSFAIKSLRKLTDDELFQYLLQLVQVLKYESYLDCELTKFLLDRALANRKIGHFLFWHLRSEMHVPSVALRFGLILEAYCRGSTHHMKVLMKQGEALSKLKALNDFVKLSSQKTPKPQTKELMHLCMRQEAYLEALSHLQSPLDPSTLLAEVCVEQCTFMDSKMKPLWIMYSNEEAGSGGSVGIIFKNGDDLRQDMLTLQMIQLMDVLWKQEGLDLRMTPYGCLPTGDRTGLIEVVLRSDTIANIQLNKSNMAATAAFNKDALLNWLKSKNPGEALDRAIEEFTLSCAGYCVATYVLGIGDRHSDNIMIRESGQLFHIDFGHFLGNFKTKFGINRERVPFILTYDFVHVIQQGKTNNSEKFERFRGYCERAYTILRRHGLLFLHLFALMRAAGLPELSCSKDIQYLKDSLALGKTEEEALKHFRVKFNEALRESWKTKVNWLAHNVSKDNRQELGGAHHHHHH
PI3Kγ (p110γ(Δ143-[Met144-1102])-His, BV950), sequence (P48736 other isoform, or with tags, fused parts or gaps): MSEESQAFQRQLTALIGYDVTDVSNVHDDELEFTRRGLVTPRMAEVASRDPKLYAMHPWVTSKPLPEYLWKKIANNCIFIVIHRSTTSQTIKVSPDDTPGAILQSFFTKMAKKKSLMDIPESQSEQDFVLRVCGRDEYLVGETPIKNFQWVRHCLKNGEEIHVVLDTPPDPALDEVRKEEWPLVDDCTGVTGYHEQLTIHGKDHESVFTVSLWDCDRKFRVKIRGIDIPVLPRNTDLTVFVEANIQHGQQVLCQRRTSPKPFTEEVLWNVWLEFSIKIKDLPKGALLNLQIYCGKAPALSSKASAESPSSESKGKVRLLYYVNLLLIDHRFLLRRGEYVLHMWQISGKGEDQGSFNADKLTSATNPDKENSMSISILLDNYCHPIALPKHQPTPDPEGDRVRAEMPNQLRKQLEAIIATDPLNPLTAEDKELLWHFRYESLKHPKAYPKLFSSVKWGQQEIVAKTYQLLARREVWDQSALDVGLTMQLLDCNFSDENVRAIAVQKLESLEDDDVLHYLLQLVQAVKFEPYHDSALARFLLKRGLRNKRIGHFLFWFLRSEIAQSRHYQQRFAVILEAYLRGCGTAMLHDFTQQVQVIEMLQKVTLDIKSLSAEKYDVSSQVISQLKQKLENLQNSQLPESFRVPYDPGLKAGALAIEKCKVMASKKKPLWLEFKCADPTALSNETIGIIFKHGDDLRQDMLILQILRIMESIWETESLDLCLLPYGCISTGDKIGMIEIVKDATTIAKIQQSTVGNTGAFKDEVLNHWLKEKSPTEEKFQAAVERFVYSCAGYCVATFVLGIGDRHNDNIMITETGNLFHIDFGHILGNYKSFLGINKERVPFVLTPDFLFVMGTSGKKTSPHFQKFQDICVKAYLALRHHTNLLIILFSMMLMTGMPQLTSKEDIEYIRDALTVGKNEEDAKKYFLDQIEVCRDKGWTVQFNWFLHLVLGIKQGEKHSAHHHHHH

Compound: Cc1nc(NC(=O)N2C[C@@H](F)C[C@H]2C(N)=O)sc1-c1ccnc(C(C)(C)C)n1 [Example 66]
IC50 ([1]; 10 nM enzyme, 30 mins): 40 nM
IC50 [1, 4]: 40 nM
Selectivity PI3Kalpha vs. PI3Kdelta [1]: 32-fold
IC50 [2]: 1270 nM

IC50 [1, 4]: 14 nM
Selectivity PI3Kalpha vs. PI3Kdelta [1]: 246-fold
IC50 [2]: 3450 nM
Compound: Cc1nc(NC(=O)N2C[C@H](N(C)C)C[C@H]2C(N)=O)sc1-c1ccnc(C(C)(C)C)n1 [Example 70, (2S,4R)-4-Dimethylamino-pyrrolidine-1,2-dicarboxylic acid 2-amide 1-{[5-(2-tert-butyl-pyrimidin-4-yl)-4-methyl-thiazol-2-yl]-amide}]

IC50 [3]: 928 nM
Compound: Cc1nc(NC(=O)N2CCC[C@@]2(C)C(N)=O)sc1-c1csc(CC2CC2)n1 [Example 151, (S)-2-Methyl-pyrrolidine-1,2-dicarboxylic acid 2-amide 1-[(2-cyclopropylmethyl-4′-methyl-[4,5′]bithiazolyl-2′-yl)-amide]]

IC50 [1, 4]: 15 nM
Selectivity PI3Kalpha vs. PI3Kdelta [1]: 65-fold
IC50 [2]: 974 nM
Compound: Cc1nc(NC(=O)N2CCC[C@@]2(C)C(N)=O)sc1-c1ccnc(C(C)(C)C)n1 [Example 12, (S)-2-methyl-pyrrolidine-1,2-dicarboxylic acid 2-amide 1-{[5-(2-tert-butyl-pyrimidin-4-yl)-4-methyl-thiazol-2-yl]-amide}]

IC50 ([1]; 10 nM enzyme, 30 mins): 17 nM
Compound: Cc1nc(NC(=O)N2CCC[C@@]2(C)C(N)=O)sc1-c1ccnc(C2(C#N)CC2)c1 [Example 49, S)-2-Methyl-pyrrolidine-1,2-dicarboxylic acid 2-amide 1-({5-[2-(1-cyano-cyclopropyl)-pyridin-4-yl]-4-methyl-thiazol-2-yl}-amide]

IC50 ([1]; 10 nM enzyme, 30 mins): 48 nM
Compound: Cc1nc(NC(=O)N2C[C@H]3C[C@H]3[C@H]2C(N)=O)sc1-c1ccnc(C(C)(C)C)n1 [Example 11, (1R,2S,5S)-3-aza-bicyclo[3.1.0]hexane-2,3-dicarboxylic acid 2-amide 3-{[5-(2-tert-butyl-pyrimidin-4-yl)-4-methyl-thiazol-2-yl]-amide}]

IC50 ([1]; 10 nM enzyme, 30 mins): 99 nM
Compound: CCN(CCOC)c1nccc(-c2sc(NC(=O)N3CCC[C@@]3(C)C(N)=O)nc2C)n1 [Example 101, (S)-2-Methyl-pyrrolidine-1,2-dicarboxylic acid 2-amide 1-[(5-{2-[ethyl-(2-methoxy-ethyl)-amino]-pyrimidin-4-yl}-4-methyl-thiazol-2-yl)-amide]]

IC50 ([1]; 10 nM enzyme, 30 mins): 24 nM
Compound: CC1(c2cc(-c3sc(NC(=O)N4CCC[C@@]4(C)C(N)=O)nc3Cl)ccn2)CC1 [Example 129, S)-2-Methyl-pyrrolidine-1,2-dicarboxylic acid 2-amide 1-({4-chloro-5-[2-(1-methyl-cyclopropyl)-pyridin-4-yl]-thiazol-2-yl}-amide]

IC50 ([1]; 10 nM enzyme, 30 mins): 8 nM
Compound: CC(C)(c1cc(-c2cnc(NC(=O)N3CCC[C@@]3(C)C(N)=O)s2)ccn1)C(F)(F)F [Example 119, S)-2-Methyl-pyrrolidine-1,2-dicarboxylic acid 2-amide 1-({5-[2-(2,2,2-trifluoro-1,1-dimethyl-ethyl)-pyridin-4-yl}-thiazol-2-yl]-amide]

IC50 ([1]; 10 nM enzyme, 30 mins): 44 nM
Compound: Cc1nc(NC(=O)N2CCC[C@@]2(CN(C)C)C(N)=O)sc1-c1ccnc(C(C)(C)C)n1 [Example 107, (R)-2-Dimethylaminomethyl-pyrrolidine-1,2-dicarboxylic acid 2-amide 1-{[5-(2-tert-butyl-pyrimidin-4-yl)-4-methyl-thiazol-2-yl]-amide}]

IC50 ([1]; 10 nM enzyme, 30 mins): 130 nM
Compound: CSc1nccc(-c2sc(NC(=O)N3CCC[C@@]3(C)C(N)=O)nc2C)n1 [Example 74, (S)-2-Methyl-pyrrolidine-1,2-dicarboxylic acid 2-amide 1-{[4-methyl-5-(2-methylsulphanyl-pyrimidin-4-yl)-thiazol-2-yl]-amide}]
